According to patent USRE35145E, “Substituted phthalocyanine” (Zeneca Limited, priority 1987, dated 1996):

What was measured:
[1] = Solubility in water, MEK, ethanol, glycols; format: physicochemical; conditions: 25° C., percentages by weight
Text: Various applications of the present compounds, especially for printing inks, require products which are soluble in solvents of differing polarities. The major requirements are for water-soluble products (water and water-alcohol or water-glycol mixtures), alcohol (typically methanol, ethanol and propanol) and glycol (typically ethylene glycol and diethylene glycol) soluble products and ketone (typically MEK) soluble products.

[2] = Near infra-red absorption spectrum in solution (WLmax, ECmax, band width); format: physicochemical
Text: The region from 750 to 1100 nm is of particular importance for optical character recognition (OCR) and for energy conversion, e.g. from laser radiation to heat. Many OCR systems use solid state semi-conductor lasers, which generally emit at 780-830 nm, as the radiation source and photodiode detectors based on silicon which have peak sensitivity around 900 rim.
WLmax is the wavelength of the absorption maximum; and
ECmax is the extinction coefficient at the absorption maximum.

hepta(4-methylphenylthio)-tetra(1-amino-2-thio-phen-1,2-ylene)-CuPc [OTCPC]
Solubility [1]: 10% | WLmax (wavelength of the absorption maximum) ([2]; in CH3 Cl): 890 nm | ECmax (extinction coefficient at the absorption maximum) ([2]; in MEK): 46,000
